{"source": "paper PMC8766756", "about": "“Insights on Cancer Cell Inhibition, Subcellular Activities, and Kinase Profile of Phenylacetamides Pending 1H-Imidazol-5-One Variants” (Frontiers in Pharmacology, 2022)", "key": {"[1]": {"test_system": "MCF7 breast cancer cell line", "assay": "SRB cytotoxicity assay", "format": "cell-based, human", "conditions": "MCF7, SRB, 72 h, read-out: IC50 ± SEM MCF7", "protocol": "(§1) The compounds were screened for their anticancer activities against a variety of cancer cell lines. The cytotoxic effect of the compounds was evaluated using the sulforhodamine B (SRB) cytotoxicity assay for breast cancer line (MCF7) and prostate cancer cell line (PC3) ([Vichai and Kirtikara, 2006]; [Rana et al., 2021]) and 3-(4,5-dimethylthiazol-2-yl)-2,5-diphenyl-2H-tetrazolium bromide (MTT) assay for the colon cancer (HCT116) cell lines ([El-Huneidi et al., 2020]). The CellTiter-Blue® cell viability assay was performed on the various leukemia cell lines, HL60, NB4, and KG1a cells ([Akter et al., 2019]). The IC50 values are illustrated in Table 1.\n(§2) MCF7 (breast), PC3 (prostate), and HCT116 (colon) cancer cell lines were obtained from ATCC, Manassas, VA, USA. Cells were grown in Roswell Park Memorial Institute-1640 (RPMI-1640) medium (Thermo Fisher Scientific, Inc., Waltham, MA, USA), supplemented with 10% heat inactivated fetal bovine serum (FBS), 50 units/mL of penicillin, and […] of streptomycin and maintained at 37°C in a humidified atmosphere containing 5% CO2. The cells were maintained as “monolayer culture” by serial subculturing.\n(§3) Exponentially growing MCF7 and PC3 cells were collected using 0.25% Trypsin-EDTA and were then seeded in 96-well plates at a density of 1,000–2,000 cells/well in 10% FBS and penicillin/streptomycin supplemented RPMI-1640 medium. After 24 h, the cells were treated with different concentrations of the test compounds and incubated for 72 h at 37°C in a humidified atmosphere containing 5% CO2. Next, the cells were fixed by trichloroacetic acid (TCA) (10% final concentration in wells) directly to the wells and incubated for 1 h at 4°C, then the cells were washed with distilled water five times to remove excess TCA, media, serum proteins, and metabolites, followed by air drying. After that, the fixed cells were stained with 0.4% SRB dissolved in 1% acetic acid for 10 min at room temperature, and excess stain was removed by quickly rinsing with 1% acetic acid. The residual acetic acid was removed completely by air drying the plates for 24 h, and the dye was solubilized with Tris buffer (pH = 7.4, 10 mM) for 5 min on a shaker at 1,600 rpm. The optical density of each well was measured spectrophotometrically at 564 nm with an ELISA microplate reader (ChroMate-4300, FL, USA). The IC50 values were calculated according to the equation for Boltzman sigmoidal concentration–response curve using the nonlinear regression fitting models (GraphPad®, Prism Version 5)."}, "[2]": {"test_system": "PC3 prostate cancer cell line", "assay": "SRB cytotoxicity assay", "format": "cell-based, human", "conditions": "72 h, read-out: IC50 ± SEM PC3", "protocol": "as §1, §2, §3"}, "[3]": {"assay": "Maximum kinetic aqueous solubility", "format": "physicochemical", "conditions": "phosphate buffer, pH 7.4, aqueous buffer, kinetic from dmso stock", "protocol": "Solubility assays were performed using the Millipore MultiScreen® HTS-PFC Filter Plates designed for the solubility assays (EMD Millipore, Billerica, MA). Assays were run in triplicate. The 96-well plates consist of two chambers separated by a filter. Liquid handling was performed using JANUS® Verispan and MTD workstations (Perkin Elmer, Waltham, MA). About 4 µL of the KIM-161 solution (10 mM in DMSO) was added to 196 µL of phosphate buffer (45 mM potassium phosphate, 45 mM sodium acetate, 45 mM ethanolamine, pH = 7.4) in the top chamber to give a final DMSO concentration of 2% and a theoretical drug concentration of 200 µM. The plates were gently shaken for 90 min and then subjected to vacuum. The insoluble drug was captured on the filter. 160 µL of the filtrate was transferred to 96-well Griener UV-Star® analysis plates (Sigma-Aldrich, St. Louis, MO) containing 40 µL of acetonitrile. The test compound concentration in the filtrate is measured by UV absorbance on a Spectromax® Plus microplate reader (Molecular Devices, Sunnyvale, CA) using SoftMax Pro Software v.5.4.5. The absorbances at five wavelengths (280, 300, 320, 340, and 360 nm) were summed to generate the UV signal. Standard curves were generated by adding 4 µL of five concentrations of the test compound in DMSO to 40 µL of acetonitrile in UV Star plates followed by 156 µL of the appropriate solubility medium. […]"}, "[4]": {"target": "T1, human cytochrome P450 2C9 (Homo sapiens, UniProt P11712)", "T1 construct": "purchased Fisher Scientific, Waltham, MA; host or cells: insect cells (Supersomes)", "T1 sequence (P11712 whole entry)": "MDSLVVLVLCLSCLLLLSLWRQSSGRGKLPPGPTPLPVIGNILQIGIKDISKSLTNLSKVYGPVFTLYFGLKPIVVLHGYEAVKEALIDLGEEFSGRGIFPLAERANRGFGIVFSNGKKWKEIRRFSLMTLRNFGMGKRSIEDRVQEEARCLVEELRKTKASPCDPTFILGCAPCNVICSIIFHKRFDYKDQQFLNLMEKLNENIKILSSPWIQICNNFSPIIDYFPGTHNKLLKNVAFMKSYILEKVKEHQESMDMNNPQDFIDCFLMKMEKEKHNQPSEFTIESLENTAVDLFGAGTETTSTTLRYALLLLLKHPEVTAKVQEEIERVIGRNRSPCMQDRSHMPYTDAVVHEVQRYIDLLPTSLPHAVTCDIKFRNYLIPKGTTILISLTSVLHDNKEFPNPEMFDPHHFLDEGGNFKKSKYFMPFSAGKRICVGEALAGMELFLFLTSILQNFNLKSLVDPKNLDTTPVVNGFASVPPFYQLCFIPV", "assay": "Inhibition assay of human CYP450 enzymes", "format": "in vitro ADME", "conditions": "fluorescent substrate", "protocol": "(§4) KIM-161 was assessed for its ability to inhibit the three major human CYP450 enzymes: 3A4, 2D6, and 2C9. The assays were run in triplicate. The expressed enzymes in insect Supersomes (Fisher Scientific, Waltham, MA) were used to minimize nonspecific binding and membrane partitioning issues ([McMasters et al., 2007]). The 3A4 assay uses testosterone as a substrate, and the analysis was performed by LC/MS/MS on a Waters Xevo TQ instrument as described above, using positive electrospray ionization. The assay acceptance criterion was 20% for all standards and 25% for the LLOQ. The 2D6 and 2C9 assays use fluorescent substrates (3-[2-(N,N-diethylamino)ethyl]-7-methoxy-4-methylcoumarin for 2D6; 7-methoxy-4-(trifluromethyl)coumarin for 2C9) and were analyzed on an Envision plate reader. GraphPad® Prism v.5.04 was used for nonlinear fitting of data to generate IC50 values."}, "[5]": {"target": "T2, human cytochrome P450 2D6 (Homo sapiens, UniProt P10635)", "T2 construct": "purchased Fisher Scientific, Waltham, MA; host or cells: insect cells (Supersomes)", "T2 sequence (P10635 whole entry)": "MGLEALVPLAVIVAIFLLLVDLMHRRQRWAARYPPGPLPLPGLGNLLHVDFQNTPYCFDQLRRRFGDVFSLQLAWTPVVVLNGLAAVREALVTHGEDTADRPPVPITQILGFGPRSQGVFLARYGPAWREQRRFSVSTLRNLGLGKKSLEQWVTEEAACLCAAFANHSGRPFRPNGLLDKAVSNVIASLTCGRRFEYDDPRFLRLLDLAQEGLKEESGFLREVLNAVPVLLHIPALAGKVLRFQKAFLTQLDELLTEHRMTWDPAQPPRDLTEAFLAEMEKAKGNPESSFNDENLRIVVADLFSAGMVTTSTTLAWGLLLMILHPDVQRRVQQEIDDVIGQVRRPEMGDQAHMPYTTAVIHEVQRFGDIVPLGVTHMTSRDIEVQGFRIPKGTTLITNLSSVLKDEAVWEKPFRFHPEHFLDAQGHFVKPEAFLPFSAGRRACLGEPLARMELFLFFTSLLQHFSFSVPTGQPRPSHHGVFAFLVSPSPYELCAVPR", "assay": "Inhibition assay of human CYP450 enzymes", "format": "in vitro ADME", "conditions": "fluorescent substrate", "protocol": "as §4"}, "[6]": {"target": "T3, human cytochrome P450 3A4 (Homo sapiens, UniProt P08684)", "T3 construct": "purchased Fisher Scientific, Waltham, MA; host or cells: insect cells (Supersomes)", "T3 sequence (P08684 whole entry)": "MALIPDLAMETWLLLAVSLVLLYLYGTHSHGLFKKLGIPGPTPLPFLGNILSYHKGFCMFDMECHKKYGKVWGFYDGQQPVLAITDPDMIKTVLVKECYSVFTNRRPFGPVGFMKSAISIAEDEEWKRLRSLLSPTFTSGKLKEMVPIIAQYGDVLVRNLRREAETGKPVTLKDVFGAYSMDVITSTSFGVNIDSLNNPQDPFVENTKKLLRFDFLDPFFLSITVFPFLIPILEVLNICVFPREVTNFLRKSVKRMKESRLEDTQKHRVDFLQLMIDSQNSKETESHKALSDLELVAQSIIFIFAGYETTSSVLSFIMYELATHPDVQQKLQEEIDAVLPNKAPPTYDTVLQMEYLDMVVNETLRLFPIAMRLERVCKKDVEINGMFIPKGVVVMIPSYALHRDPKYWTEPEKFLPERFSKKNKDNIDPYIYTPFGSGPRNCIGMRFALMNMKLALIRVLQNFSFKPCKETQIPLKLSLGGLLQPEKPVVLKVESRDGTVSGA", "assay": "Inhibition assay of human CYP450 enzymes", "format": "in vitro ADME", "conditions": "testosterone substrate", "protocol": "as §4"}}, "note": "Read-outs that look alike come from different tables or passages of the source.", "data": [{"smiles": "COc1ccc(/C=C2\\N=C(C)N(c3ccc(CC(=O)NCc4ccccc4)cc3)C2=O)cc1", "note": "[Compound 4c, (Z)-N-Benzyl-2-(4-(4-(4-methoxybenzylidene)-2-methyl-5-oxo-4,5-dihydro-1H-imidazol-1-yl)phenyl)acetamide]", "values": [{"measurement": "IC50", "setting": "[1]; Homo sapiens, MCF7, 72 h", "value": 1140, "unit": "nM"}, {"measurement": "IC50", "setting": "[1]", "value": "1140 ± 190", "unit": "nM"}, {"measurement": "IC50", "setting": "[2]", "value": "2140 ± 340", "unit": "nM"}, {"measurement": "IC50", "setting": "[2]; Homo sapiens", "value": 2130, "unit": "nM"}, {"measurement": "solubility at 90 min", "setting": "[3]; Max solubility in 2% DMSO/PBS, kinetic, pH 7.4", "value": 19.9, "unit": "µM"}, {"measurement": "solubility at 90 min", "setting": "[3]; read-out: solubility", "value": "~20", "unit": "µM"}, {"measurement": "IC50", "setting": "[4]", "value": "≥ 10000", "unit": "nM"}, {"measurement": "IC50", "setting": "[5]", "value": "≥ 10000", "unit": "nM"}, {"measurement": "IC50", "setting": "[6]", "value": "≥ 10000", "unit": "nM"}]}]}
